Results as given in patent EP0973766B1, “QUINOXALINEDIONES” (Pfizer Limited, priority 1997, dated 1998).

Assay: Lipophilicity by the octanol/water partition method

logD: -1.7
SMILES: COCc1nnc(-c2ccc[n+]([O-])c2)n1-c1c(Cl)c(Cl)cc2[nH]c(=O)c(=O)[nH]c12 [Example 2, (-)-6,7-Dichloro-5-[3-methoxymethyl-5-(1-oxidopyridin-3-yl)-4H-1,2,4-triazol-4-yl]-2,3(1H,4H)-quinoxalinedione hydrate]
